Results reported in US20100016232A1, “Treatment Of Inflammatory Diseases With Mammal Beta Defensins” (Novozymes A/S, priority 2008, published 2010).
Where no end group is shown, it is not given here.

Legend:
[1] = test system: IL-1β production from human peripheral blood mononuclear cells (PBMC); assay: IL-1β production from human PBMC, Cytometric Bead Array; format: cell-based
Method: (§1) Peripheral blood was drawn from healthy volunteers (with approval from the relevant ethical committee in Denmark). Heparinized blood was diluted 1/1 v/v with RPMI and were subjected to Ficoll density centrifugation within 2 h of drawing. Plasma was collected from the top from individual donors and was kept on ice until it was used at 2% in the culture medium (autologous culture medium). Isolated PBMC were resuspended in autologous culture medium and seeded in 96-well culture plates with 255.000 cells per well in a total of 200 μl. […] The concentrations used for stimulation were optimized on 3 different donors in initial experiments, for LPS two different concentrations were used to be sure to be on a cytokine level that is possible to modulate. In some experiments PBMC were treated with Dexamethason and Indomethacin alone and together with LPS or LTA as a control on downregulation of inflammatory cytokines. The supernatants were collected after incubation at 37° C. for 24 hours, and stored at −80° C. until cytokine measurement. Viability was measured by Alamar Blue (Biosource, DALL 1100) in all experiments and in some cases also by MTS (Promega) according to manufacturer's instruction and was in some experiments also judged by counting of the cells by a Nucleocounter.
(§2) Cytokine production in supernatants was measured by flow cytometry with a human inflammation cytometric bead array (CBA) according to manufacturer's instructions (BD) on a FACSarray flow cytometer. The following cytokines were measured: IL-8, IL-1β, IL-10, TNF, IL-12 p70, IL-6. In some experiments, cytokines were measured by ELISA kits from R&D systems (IL-10, TNF-α, IL-1β) according to the manufacturer' instruction.

[2] = test system: IL-10 production from human peripheral blood mononuclear cells (PBMC); assay: IL-10 production from human PBMC, Cytometric Bead Array; format: cell-based
Method: as §1, §2

[3] = test system: TNF production from human peripheral blood mononuclear cells (PBMC); assay: TNF production from human PBMC, Cytometric Bead Array; format: cell-based
Method: as §1, §2

[4] = test system: PBMC; assay: PBMC viability, Alamar Blue; format: cell-based, human; conditions: human PBMC, Example 2; 10 μg/ml and 40 μg/ml
Method: as §1

[5] = LPS 0.6 ng/ml, test compound 1 μg/ml, Table 18
[6] = LPS 20 ng/ml, test compound 1 μg/ml, Table 18
[7] = LPS 0.6 ng/ml, test compound 1 μg/ml, Table 17
[8] = LPS 0.6 ng/ml, test compound 1 μg/ml, Table 16
[9] = LPS 20 ng/ml, test compound 1 μg/ml, Table 16

In the case of `COc1ccc2c(c1)c(CC(=O)O)c(C)n2C(=O)c1ccc(Cl)cc1` [Indomethacin, reference compound], the IL-1β ([1]; LPS 0.6 ng/ml, Indomethacin 0.72 ug/ml, Table 13) is reported as 3.1 ng/mL, the IL-1β ([1]; LPS 0.6 ng/ml, Indomethacin 7.2 ug/ml, Table 13) is reported as 4.1 ng/mL and the IL-1β ([1]; LPS 20 ng/ml, Indomethacin 0.72 ug/ml, Table 13) is reported as 6.46 ng/mL. For the same molecule, the IL-1β ([1]; LPS 20 ng/ml, Indomethacin 7.2 ug/ml, Table 13) was 6.12 ng/mL, the IL-1β ([1]; LTA 1.25 μg/ml, Indomethacin 0.72 ug/ml, Table 13) was 7.53 ng/mL and the IL-1β ([1]; LTA 1.25 μg/ml, Indomethacin 7.2 ug/ml, Table 13) was 8.91 ng/mL. It also gave an IL-1β ([1]; Medium, Indomethacin 0.72 ug/ml, Table 13) of 0.01 ng/mL, an IL-1β ([1]; Medium, Indomethacin 7.2 ug/ml, Table 13) of 0.04 ng/mL and an IL-10 ([2]; LPS 0.6 ng/ml, Indomethacin 0.72 ug/ml, Table 12) of 37.3 pg/mL. For the same molecule, the IL-10 ([2]; LPS 0.6 ng/ml, Indomethacin 7.2 ug/ml, Table 12) was 45.7 pg/mL, the IL-10 ([2]; LPS 20 ng/ml, Indomethacin 0.72 ug/ml, Table 12) was 108.0 pg/mL and the IL-10 ([2]; LPS 20 ng/ml, Indomethacin 7.2 ug/ml, Table 12) was 77.9 pg/mL. For the same molecule, the IL-10 ([2]; LTA 1.25 μg/ml, Indomethacin 0.72 ug/ml, Table 12) was 84.9 pg/mL, the IL-10 ([2]; LTA 1.25 μg/ml, Indomethacin 7.2 ug/ml, Table 12) was 90.4 pg/mL and the IL-10 ([2]; Medium, Indomethacin 0.72 ug/ml, Table 12) was 0.0 pg/mL. For the same molecule, the IL-10 ([2]; Medium, Indomethacin 7.2 ug/ml, Table 12) was 0.0 pg/mL, the TNF ([3]; LPS 0.6 ng/ml, Indomethacin 0.72 ug/ml, Table 11) was […] and the TNF ([3]; LPS 0.6 ng/ml, Indomethacin 7.2 ug/ml, Table 11) was […]. For the same molecule, the TNF ([3]; LPS 20 ng/ml, Indomethacin 0.72 ug/ml, Table 11) was […], the TNF ([3]; LPS 20 ng/ml, Indomethacin 7.2 ug/ml, Table 11) was […] and the TNF ([3]; LTA 1.25 μg/ml, Indomethacin 0.72 ug/ml, Table 11) was […]. It also gave a TNF ([3]; LTA 1.25 μg/ml, Indomethacin 7.2 ug/ml, Table 11) of […], a TNF ([3]; Medium, Indomethacin 0.72 ug/ml, Table 11) of […] and a TNF ([3]; Medium, Indomethacin 7.2 ug/ml, Table 11) of […].

For “hBD3: human beta defensin 3, SEQ ID NO:3; prepared using chemical synthesis, Peptide Institute Inc. (GIINTLQKYYCRVRGGRCAVLSCLPKEEQTGKCSTRGRKCCRRKK; ends and bridges not checked; cysteine pairing not given here; listed as Homo sapiens)”, the IL-1β [1, 5] was 0.331 ng/mL, the “IL-1β % of control” value [1, 5] was 45% and the IL-1β [1, 6] was 0.568 ng/mL. The “IL-1β % of control” value [1, 6] was 22%, the IL-1β ([1]; Medium, test compound 1 μg/ml, Table 18) was 0 ng/mL and the IL-10 [2, 7] was 71 pg/mL. For the same molecule, the “IL-10 % of control” value [2, 7] was 107%, the “IL-10 % of control” value ([2]; LPS 20 ng/ml, test compound 1 μg/ml, Table 17) was 137% and the IL-10 ([2]; Medium, test compound 1 μg/ml, Table 17) was 0 pg/mL. The TNF [3, 8] was 0.528 ng/mL, the “TNF % of control” value [3, 8] was 73% and the TNF [3, 9] was 0.451 ng/mL. The “TNF % of control” value [3, 9] was 21%, the TNF ([3]; Medium, test compound 1 μg/ml, Table 16) was 0 ng/mL and the “toxicity to the cells” value [4] was “toxic to the cells”.
